The record followed here is PubChem BioAssay AID270 (DTP/NCI, 2004).

The test system of this experiment is BDF1 mice, s.c. Lewis lung carcinoma, T/C %. In words: NCI In Vivo Anticancer Drug Screen. Data for tumor model Lewis Lung Carcinoma (subcutaneous) in B6D2F1 (BDF1) mice. The method in brief: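 The value reflects a ratio in which the treated cohort's survival time or tumour size is compared against mice receiving only vehicle.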
Setting [1] is: endpoint: median survival time, dose: 6.25 mg/kg/injection, schedule: Q01DX009 (ip), vehicle: Klucel (hydroxypropylcellulose) (HPC), higher = longer survival.
Where [2] appears, read: endpoint: median survival time, dose: 12.5 mg/kg/injection, schedule: Q01DX009 (ip), vehicle: Klucel (hydroxypropylcellulose) (HPC), higher = longer survival.
The mark [3] stands for this setting: endpoint: mean tumor weight, dose: 25.0 mg/kg/injection, schedule: Q01DX011 (ip), vehicle: saline, higher = larger tumour.
Where [4] appears, read: endpoint: mean tumor weight, dose: 50.0 mg/kg/injection, schedule: Q01DX011 (ip), vehicle: saline, higher = larger tumour.

Values joined by “and” are separate entries in the source; they are usually repeats but may differ in a detail not shown here. Identical values can stand only once. Records with an inconclusive call do not appear.

Take `O=C1c2c(Cl)c(Cl)c(Cl)c(Cl)c2C(=O)N1c1nccs1`: the T/C reads like this: (endpoint: mean tumor weight, dose: 25.0 mg/kg/injection, schedule: Q01DX011 (ip), vehicle: carboxymethylcellulose (CMC), higher = larger tumour) 62 % of control; (endpoint: mean tumor weight, dose: 50.0 mg/kg/injection, schedule: Q01DX011 (ip), vehicle: carboxymethylcellulose (CMC), higher = larger tumour) 50 % of control.

For the molecule `C[C@]1(O)CC[C@H]2[C@@H]3CCC4=CC(=O)CC[C@]4(C)[C@@]3(F)[C@@H](O)C[C@@]21C`, the T/C is, setting by setting: (endpoint: median survival time, dose: 12.5 mg/kg/injection, schedule: Q02DX009 (ip), vehicle: Klucel (hydroxypropylcellulose) (HPC), higher = longer survival) 103 % of control; (endpoint: median survival time, dose: 25.0 mg/kg/injection, schedule: Q02DX009 (ip), vehicle: Klucel (hydroxypropylcellulose) (HPC), higher = longer survival) 93 % of control; (endpoint: median survival time, dose: 50.0 mg/kg/injection, schedule: Q02DX009 (ip), vehicle: Klucel (hydroxypropylcellulose) (HPC), higher = longer survival) 87 % of control; (endpoint: median survival time, dose: 100.0 mg/kg/injection, schedule: Q02DX009 (ip), vehicle: Klucel (hydroxypropylcellulose) (HPC), higher = longer survival) 109 % of control; (endpoint: median survival time, dose: 200.0 mg/kg/injection, schedule: Q02DX009 (ip), vehicle: Klucel (hydroxypropylcellulose) (HPC), higher = longer survival) 103 % of control; (endpoint: median survival time, dose: 400.0 mg/kg/injection, schedule: Q02DX009 (ip), vehicle: Klucel (hydroxypropylcellulose) (HPC), higher = longer survival) 96 % of control.

Regarding `C=C1C(=O)OC2CC1C(O)C/C(C)=C/CC/C(C)=C/C(O)CC2C` (configuration not stated), the T/C was 90 % of control (endpoint: median survival time, dose: 1.56 mg/kg/injection, schedule: Q01DX009 (ip), vehicle: Klucel (hydroxypropylcellulose) (HPC), higher = longer survival); 108 % of control (endpoint: median survival time, dose: 3.12 mg/kg/injection, schedule: Q01DX009 (ip), vehicle: Klucel (hydroxypropylcellulose) (HPC), higher = longer survival); 93 % of control under setting [1]; 92 % of control under setting [2]; 99 % of control (endpoint: median survival time, dose: 25.0 mg/kg/injection, schedule: Q01DX009 (ip), vehicle: Klucel (hydroxypropylcellulose) (HPC), higher = longer survival).

Regarding `C=C[C@@]1(C)C=C2CC[C@@H]3[C@](C)(CCC[C@@]3(C)C(=O)O)[C@H]2CC1`, the T/C was 95 % of control under setting [3]; 88 % of control under setting [4]; 84 % of control (endpoint: mean tumor weight, dose: 100.0 mg/kg/injection, schedule: Q01DX011 (ip), vehicle: saline, higher = larger tumour); 95 % of control (endpoint: mean tumor weight, dose: 200.0 mg/kg/injection, schedule: Q01DX011 (ip), vehicle: saline, higher = larger tumour).

In the case of `Nc1nc(SN=Nc2ccc(S(N)(=O)=O)cc2)c2[nH]cnc2n1`, the T/C is 64 % of control (endpoint: mean tumor weight, dose: 0.6 mg/kg/injection, schedule: Q01DX011 (ip), vehicle: saline, higher = larger tumour); 43 % of control (endpoint: mean tumor weight, dose: 1.0 mg/kg/injection, schedule: Q01DX011 (ip), vehicle: saline, higher = larger tumour); 93 % of control (endpoint: mean tumor weight, dose: 1.5 mg/kg/injection, schedule: Q01DX011 (ip), vehicle: saline, higher = larger tumour); 67 % of control (endpoint: mean tumor weight, dose: 2.2 mg/kg/injection, schedule: Q01DX011 (ip), vehicle: other, higher = larger tumour); 52 % of control and 67 % of control (endpoint: mean tumor weight, dose: 2.2 mg/kg/injection, schedule: Q01DX011 (ip), vehicle: saline, higher = larger tumour); 72 % of control (endpoint: mean tumor weight, dose: 3.3 mg/kg/injection, schedule: Q01DX011 (ip), vehicle: other, higher = larger tumour). The T/C (endpoint: mean tumor weight, dose: 3.3 mg/kg/injection, schedule: Q01DX011 (ip), vehicle: saline, higher = larger tumour) was 36 % of control; the T/C (endpoint: mean tumor weight, dose: 5.0 mg/kg/injection, schedule: Q01DX011 (ip), vehicle: other, higher = larger tumour) was 35 % of control; the T/C (endpoint: mean tumor weight, dose: 5.0 mg/kg/injection, schedule: Q01DX011 (ip), vehicle: saline, higher = larger tumour) is 40 % of control; the T/C (endpoint: mean tumor weight, dose: 7.5 mg/kg/injection, schedule: Q01DX011 (ip), vehicle: other, higher = larger tumour) is 11 % of control; the T/C (endpoint: mean tumor weight, dose: 7.5 mg/kg/injection, schedule: Q01DX011 (ip), vehicle: saline, higher = larger tumour) was 19 % of control.

As to `COC(CCC(C)C1OC23CC(OC(=O)CC(C(C)O)OC(=O)CC(O)(O2)C(C)CC3(C)C)C1C)c1cccc(O)c1` (configuration not stated), the T/C (endpoint: median survival time, dose: 25.0 micrograms/kg/injection, schedule: Q01DX009 (ip), vehicle: other, higher = longer survival) was 88 % of control; the T/C (endpoint: median survival time, dose: 50.0 micrograms/kg/injection, schedule: Q01DX009 (ip), vehicle: other, higher = longer survival) was 101 % of control; the T/C (endpoint: median survival time, dose: 100.0 micrograms/kg/injection, schedule: Q01DX009 (ip), vehicle: other, higher = longer survival) was 111 % of control.

Regarding `CC1CCCCN1` (configuration not stated), the T/C reads like this: (endpoint: mean tumor weight, dose: 12.5 mg/kg/injection, schedule: Q01DX011 (ip), vehicle: saline, higher = larger tumour) 95 % of control; under setting [3], 85 % of control; under setting [4], 80 % of control.

With `CCN(C=O)CC`, the T/C was 89 % of control (endpoint: mean tumor weight, dose: 88.0 mg/kg/injection, schedule: Q01DX011 (ip), vehicle: other, higher = larger tumour); 102 % of control (endpoint: mean tumor weight, dose: 133.0 mg/kg/injection, schedule: Q01DX011 (ip), vehicle: other, higher = larger tumour); 68 % of control (endpoint: mean tumor weight, dose: 200.0 mg/kg/injection, schedule: Q01DX011 (ip), vehicle: other, higher = larger tumour); 87 % of control (endpoint: mean tumor weight, dose: 300.0 mg/kg/injection, schedule: Q01DX011 (ip), vehicle: other, higher = larger tumour); 65 % of control (endpoint: mean tumor weight, dose: 300.0 mg/kg/injection, schedule: Q01DX011 (ip), vehicle: saline, higher = larger tumour); 62 % of control (endpoint: mean tumor weight, dose: 600.0 mg/kg/injection, schedule: Q01DX011 (ip), vehicle: saline, higher = larger tumour). The T/C (endpoint: mean tumor weight, dose: 900.0 mg/kg/injection, schedule: Q01DX011 (ip), vehicle: saline, higher = larger tumour) is 90 % of control.

Consider `Cc1ccc(NC(=O)N(CCBr)N=O)cc1`, for which the T/C (endpoint: median survival time, dose: 0.5 mg/kg/injection, schedule: Q01DX009 (ip), vehicle: other, higher = longer survival) was 101 % of control; the T/C (endpoint: median survival time, dose: 1.0 mg/kg/injection, schedule: Q01DX009 (ip), vehicle: other, higher = longer survival) is 103 % of control; the T/C (endpoint: median survival time, dose: 1.6 mg/kg/injection, schedule: Q01DX009 (ip), vehicle: other, higher = longer survival) is 97 % of control; the T/C (endpoint: median survival time, dose: 2.0 mg/kg/injection, schedule: Q01DX009 (ip), vehicle: other, higher = longer survival) is 106 % of control; the T/C (endpoint: median survival time, dose: 4.0 mg/kg/injection, schedule: Q01DX009 (ip), vehicle: other, higher = longer survival) is 97 % of control; the T/C (endpoint: median survival time, dose: 6.25 mg/kg/injection, schedule: Q01DX009 (ip), vehicle: other, higher = longer survival) is 94 % of control and 99 % of control. Moreover, the T/C (endpoint: median survival time, dose: 12.5 mg/kg/injection, schedule: Q01DX009 (ip), vehicle: other, higher = longer survival) was 95 % of control; the T/C (endpoint: median survival time, dose: 25.0 mg/kg/injection, schedule: Q01DX009 (ip), vehicle: other, higher = longer survival) is 96 % of control; the T/C (endpoint: median survival time, dose: 50.0 mg/kg/injection, schedule: Q01DX009 (ip), vehicle: other, higher = longer survival) is 96 % of control.

As for `CCOC(=O)c1c[nH]c2c(Cl)c(C)ccc2c1=O`, the T/C (endpoint: mean tumor weight, dose: 104.0 mg/kg/injection, schedule: Q01DX011 (ip), vehicle: other, higher = larger tumour) is 106 % of control; the T/C (endpoint: mean tumor weight, dose: 155.0 mg/kg/injection, schedule: Q01DX011 (ip), vehicle: other, higher = larger tumour) was 111 % of control; the T/C (endpoint: mean tumor weight, dose: 350.0 mg/kg/injection, schedule: Q01DX011 (ip), vehicle: other, higher = larger tumour) is 75 % of control.

As for `O=c1cnn(C2OC(CO)C(O)C2O)c(=O)[nH]1` (configuration not stated), the T/C (endpoint: median survival time, dose: 150.0 mg/kg/injection, schedule: Q01DX009 (ip), vehicle: Klucel (hydroxypropylcellulose) (HPC), higher = longer survival) is 150 % of control and the T/C (endpoint: median survival time, dose: 600.0 mg/kg/injection, schedule: Q01DX009 (ip), vehicle: Klucel (hydroxypropylcellulose) (HPC), higher = longer survival) was 157 % of control.

`COc1ccc(-c2cc(=O)c3c(OC)c(OC)c(OC)c(OC)c3o2)c(OC)c1`: the T/C (endpoint: mean tumor weight, dose: 12.5 mg/kg/injection, schedule: Q01DX011 (sc), vehicle: steriod suspending solution, higher = larger tumour) is 72 % of control; the T/C (endpoint: mean tumor weight, dose: 25.0 mg/kg/injection, schedule: Q01DX011 (sc), vehicle: steriod suspending solution, higher = larger tumour) is 88 % of control; the T/C (endpoint: mean tumor weight, dose: 50.0 mg/kg/injection, schedule: Q01DX011 (sc), vehicle: steriod suspending solution, higher = larger tumour) is 87 % of control; the T/C (endpoint: mean tumor weight, dose: 100.0 mg/kg/injection, schedule: Q01DX011 (sc), vehicle: steriod suspending solution, higher = larger tumour) is 86 % of control.

For `CC[CH2][Pb]([CH2]CC)([CH2]CC)[N]1C(=O)c2ccccc2C1=O`, the T/C runs as follows: (endpoint: median survival time, dose: 3.13 mg/kg/injection, schedule: Q01DX009 (ip), vehicle: Klucel (hydroxypropylcellulose) (HPC), higher = longer survival) 96 % of control; under setting [1], 87 % of control; under setting [2], 102 % of control.

`CC1CCCC(NC(=O)N(CCCl)N=O)C1` (configuration not stated): the T/C (endpoint: median survival time, dose: 20.0 mg/kg/injection, schedule: Q01DX001 (ip), vehicle: gum acacia, higher = longer survival) was 110 % of control; the T/C (endpoint: median survival time, dose: 30.0 mg/kg/injection, schedule: Q01DX001 (ip), vehicle: gum acacia, higher = longer survival) is 110 % of control; the T/C (endpoint: median survival time, dose: 43.0 mg/kg/injection, schedule: Q01DX001 (ip), vehicle: gum acacia, higher = longer survival) was 92 % of control; the T/C (endpoint: median survival time, dose: 64.0 mg/kg/injection, schedule: Q01DX001 (ip), vehicle: gum acacia, higher = longer survival) was 90 % of control; the T/C (endpoint: median survival time, dose: 96.0 mg/kg/injection, schedule: Q01DX001 (ip), vehicle: gum acacia, higher = longer survival) was 155 % of control.
